Measured values as given in article PMC12285946, “Investigation of the Cytotoxicity of Cu(II), Au(III), and Pd(II) Complexes with 2,4-Dithiouracil and 6-Propyl-2-thiouracil Derivatives” (BioTech, 2025).

Legend:
[1] = system: HeLa cell line (human cervical carcinoma); experiment: MTT cell viability assay, HeLa tumor cell line; type: cell-based; conditions: for Cytotoxic Concentration (CD50): MTT, 72 h
Procedure: (§1) To assess the in vitro biocompatibility of the tested compounds, a series of cell viability assays were conducted on human cervical carcinoma cell lines (HeLa), as well as on normal Vero cells (kidney cells from the African green monkey). All cell lines were obtained from the German Collection of Microorganisms and Cell Cultures (DSMZ GmbH, Braunschweig, Germany). The cell cultures were maintained in DMEM (Dulbecco’s Modified Eagle Medium) (Gibco Thermofisher Scientific, 168 Third Avenue, Waltham, MA, USA, 02451) growth medium, supplemented with 10% fetal bovine serum (FBS, Sigma-Aldrich, Darmstadt, Germany) and 5% L-glutamine (Sigma-Aldrich, Darmstadt, Germany) and incubated under controlled conditions of 37 °C in a humidified atmosphere with 5% CO2.
(§2) The experimental approach included a series of cytotoxicity assays to determine the extent of cell proliferation inhibition by the synthesized complexes and their free ligands. Cell viability was quantified using a standard MTT-based colorimetric assay. Exponentially growing cells were harvested and seeded (100 μL per well) into 96-well plates at an appropriate density—3 × 10^5 for HeLa and Vero cells. The cells were exposed to various concentrations of the tested compounds, ranging from 0.0001 to 10 mg/mL, and incubated for 72 h.
(§3) Statistical significance was established at p ≤ 0.05.

[2] = system: Vero cell line (kidney cells from African green monkey); experiment: MTT cell viability assay, Vero normal cell line; type: cell-based; conditions: for Cytotoxic Concentration (CD50): Vero normal cell line, MTT, 72 h
Procedure: as §1, §2, §3

HeLa cell lines = conditions: cited from earlier work

Sc1ccnc(S)n1 [2,4-dithiouracil]
Cytotoxic Concentration (CD50) [1]: 0.3167 mM | Cytotoxic Concentration (CD50) [2]: 1.421 mM

N.N.[Cl][Pt][Cl] [Cisplatin]
reduction in cell viability (HeLa cell lines; 0.15 mg/mL, 24 h, HeLa): about 10% | concentration leading to a significant loss of cell viability (HeLa cell lines; HeLa, on average): 0.003 mg/mL | concentration needed for complete inhibition of viability (HeLa cell lines; human cervical carcinoma cell line): higher than 1.5 mg/mL

N.N.O=C([O-])C1(C(=O)[O-])CCC1.[Pt+2] [carboplatin]
concentration yielding complete inhibition of cell viability (HeLa cell lines; HeLa): 1 mg/mL

CCCc1cc(=O)[nH]c(=S)[nH]1 [6-propyl-2-thiouracil]
cytotoxic activity relative to 2,4-dithiouracil [1]: three times | Cytotoxic Concentration (CD50) [1]: 0.0955 mM | Cytotoxic Concentration (CD50) [2]: 0.6068 mM | cytotoxic activity relative to 2,4-dithiouracil ([2]; normal cell line (Vero)): two times stronger
